Earlier results in patent US10925856B2, “Methods and compositions involving bucindolol for the treatment of atrial fibrillation” (priority 2018, dated 2021).
Read-outs that look alike come from different tables or passages of the source.

Tested on: patients with HF and/or AF
Details: persistent AF recently converted to SR, cited from earlier work

| SMILES | AF recurrence rate (Katritsis et al) [%] | AF recurrence rate (Plewan et al) [%] |
| --- | --- | --- |
| CC(C)NCC(O)COc1ccc(COCCOC(C)C)cc1 (stereo not shown) [bisoprolol] | 46 | 42 |
| COc1ccccc1OCCNCC(O)COc1cccc2[nH]c3ccccc3c12 (stereo not shown) [carvedilol] | 32 |  |
| CC(C)NCC(O)c1ccc(NS(C)(=O)=O)cc1 (stereo not shown) [sotalol] |  | 41 |
